Reference: US20260008770A1, “CBL-B INHIBITORS AND METHODS OF USES THEREOF” (Insilico Medicine IP Limited, priority 2022, published 2026)
Like-named read-outs stand apart in the source and are kept apart here.

Target: Cbl-b protein (CBL-B, GST-Tag) (Homo sapiens (Human), UniProt Q13191)
Test: HTRF based binding assay, affinity to Cbl-b protein
[1] = HTRF binding, CBL-B (GST-Tag), fluorescence labeled Cbl-b binding probe

Cbl-b protein (CBL-B, GST-Tag), sequence (Q13191 whole entry): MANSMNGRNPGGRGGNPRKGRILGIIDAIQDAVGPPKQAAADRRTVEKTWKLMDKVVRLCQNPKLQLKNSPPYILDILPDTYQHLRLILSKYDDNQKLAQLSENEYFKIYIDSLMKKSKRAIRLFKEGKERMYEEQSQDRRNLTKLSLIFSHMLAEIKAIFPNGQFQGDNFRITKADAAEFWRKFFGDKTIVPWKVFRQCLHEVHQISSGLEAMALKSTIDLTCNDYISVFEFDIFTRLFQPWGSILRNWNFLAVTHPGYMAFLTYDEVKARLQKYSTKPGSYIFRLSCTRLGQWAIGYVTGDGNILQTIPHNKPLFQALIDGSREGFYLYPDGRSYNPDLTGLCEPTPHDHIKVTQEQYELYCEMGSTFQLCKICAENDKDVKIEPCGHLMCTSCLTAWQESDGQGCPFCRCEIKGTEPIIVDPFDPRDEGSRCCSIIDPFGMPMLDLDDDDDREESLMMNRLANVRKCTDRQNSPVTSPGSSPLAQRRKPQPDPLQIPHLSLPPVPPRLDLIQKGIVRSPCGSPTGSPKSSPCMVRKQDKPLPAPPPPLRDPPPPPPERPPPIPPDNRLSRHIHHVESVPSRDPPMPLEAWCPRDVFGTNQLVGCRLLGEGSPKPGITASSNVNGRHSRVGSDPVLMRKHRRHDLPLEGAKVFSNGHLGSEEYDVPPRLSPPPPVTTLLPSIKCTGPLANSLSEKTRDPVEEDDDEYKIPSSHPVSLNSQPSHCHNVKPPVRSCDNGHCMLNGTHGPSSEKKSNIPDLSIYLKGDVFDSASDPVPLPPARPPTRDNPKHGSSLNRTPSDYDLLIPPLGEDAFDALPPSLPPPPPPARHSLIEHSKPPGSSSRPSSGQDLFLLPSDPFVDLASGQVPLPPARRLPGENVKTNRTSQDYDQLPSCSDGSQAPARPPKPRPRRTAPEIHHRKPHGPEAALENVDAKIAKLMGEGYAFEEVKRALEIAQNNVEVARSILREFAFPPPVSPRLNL

CC1CC(c2cccc(-c3nc4cc(CN5CCC[C@H](C)C5)cc(C(F)(F)F)c4s3)c2)(c2nncn2C)C1 (stereo partly drawn) [Example 4, (S)-2-(3-(3-methyl-1-(4-methyl-4H-1,2,4-triazol-3-yl)cyclobutyl)phenyl)-5-((3-methylpiperidin-1-yl)methyl)-7-(trifluoromethyl)benzo[d]thiazole]
IC50 [1]: < 20 nM

C=Cc1cc(C2(c3nncn3C)CC(C)C2)cc(-n2cnc3c(C(F)(F)F)cc(CN4CCC[C@H](C)C4)cc3c2=O)n1 (stereo partly shown) [Example 49]
IC50 [1]: < 20 nM

C[C@H]1CCCN(Cc2cc(C(F)(F)F)c3cn(-c4cccc(C5(c6nncn6C)CC(CC#N)C5)c4)nc3c2)C1 (stereo partly shown) [Example 90]
IC50 [1]: < 20 nM

[2H]c1nnc(C2(c3ccnc(-n4cnc5c(C(F)(F)F)cc(CN6CCC[C@H](C)C6)cc5c4=O)c3)CC(C)C2)n1C(F)F (stereo partly shown) [Example 113]
IC50 [1]: < 20 nM

CC1CC(c2cc(C3CC3)nc(-n3cnc4c(C(F)(F)F)cc(CN5CCC[C@H](C)C5)cc4c3=O)c2)(c2nncn2C)C1 (stereo partly shown) [Example 47]
IC50 [1]: < 20 nM

C#CC1CC(c2cccc(-n3cc4c(C(F)(F)F)cc(CN5CCC[C@H](C)C5)cc4n3)c2)(c2nncn2C)C1 (stereo partly shown) [Example 32]
IC50 [1]: < 20 nM

Cn1cnnc1[C@]1(c2ccnc(-n3ncc4c(C(F)(F)F)cc(CN5CCCC6(CC6)C5)cc4c3=O)c2)C[C@H](C)C1 [Example 37]
IC50: 50 to 500 nM

CC1CC(c2cccc(-n3[nH]c(=O)c4c(C(F)(F)F)cc(CN5CCC[C@H](C)C5)cc4c3=O)c2)(c2nncn2C)C1 (stereo partly shown) [Example 81]
IC50: 50 to 500 nM

C[C@H]1CCCN(Cc2cc(C(F)(F)F)c3cn(-c4cccc([C@]5(c6nncn6C)C[C@@H](OC(F)(F)F)C5)c4)nc3c2)C1 [Example 92]
IC50: 50 to 500 nM

C#CC1CCCN(Cc2cc(C(F)(F)F)c3cnn(-c4cccc(C5(c6nncn6C)CC(C)C5)c4)c(=O)c3c2)C1 (stereo not shown) [Example 20]
IC50: 500 to 1000 nM

CC1CC(c2cccc(-n3ccc4c(C(F)(F)F)cc(CN5CCC[C@H](C)C5)cc4c3=O)c2)(c2nncn2C)C1 (stereo partly shown) [Example 23]
IC50 [1]: < 20 nM

CC1CC(c2cccc(-n3ncc4c(C(F)(F)F)cc(CN5CCCCC5)cc4c3=O)c2)(c2nncn2C)C1 (stereo not shown) [Example 22]
IC50: 50 to 500 nM

CC1CC(c2cccc(-n3ncc4c(C(F)(F)F)cc(CN5CCC(F)(F)[C@@H](C)C5)cc4c3=O)c2)(c2nncn2C)C1 (stereo partly shown) [Example 15]
IC50 [1]: > 1000 nM

CC1CC(c2cccc(-n3ncc4c(C(F)(F)F)cc(CN5CCC(F)(F)[C@H](C)C5)cc4c3=O)c2)(c2nncn2C)C1 (stereo partly shown) [Example 14]
IC50: 50 to 500 nM

Cc1cc(C2(c3nncn3C)CC(C)C2)cc(-n2cnc3c(C(F)(F)F)cc(CN4CCC[C@H](C)C4)cc3c2=O)n1 (stereo partly shown) [Example 45]
IC50: 50 to 500 nM

C[C@H]1CCCN(Cc2cc(C(F)(F)F)c3cn(-c4cccc(C5(c6nncn6C)CC(F)(F)C5)c4)nc3c2)C1 [Example 87]
IC50: 20 to 50 nM

C[C@H]1CCCN(Cc2cc(C(F)(F)F)c3cnn(-c4cc([C@]5(c6nncn6C)C[C@H](C)C5)ccn4)c(=O)c3c2)C1 [Example 65]
IC50: 500 to 1000 nM

C[C@H]1CCCN(Cc2cc(C(F)(F)F)c3cn(-c4cc(C5(Cc6nncn6C)COC5)cc5c4OCC5)nc3c2)C1 [Example 75]
IC50 [1]: < 20 nM

COc1cc([C@]2(c3nncn3C)C[C@@H](C)C2)cc(-n2cnc3c(C(F)(F)F)cc(CN4CCC[C@H](C)C4)cc3c2=O)n1 [Example 115]
IC50 [1]: < 20 nM

CC1CC(c2ccc(F)c(-n3cc4c(C(F)(F)F)cc(CN5CCC[C@H](C)C5)cc4n3)c2)(c2nncn2C)C1 (stereo partly shown) [Example 72]
IC50: 20 to 50 nM

C[C@H]1CCCN(Cc2cc(C(=O)Nc3cccc([C@]4(c5nncn5C)C[C@@H](C)C4)c3)c(F)c(C(F)(F)F)c2)C1 [Example 28]
IC50 [1]: < 20 nM

C[C@@H]1CN(Cc2cc(C(F)(F)F)c3ncn(-c4cc([C@]5(c6nncn6C)C[C@@H](C)C5)cc(OCF)n4)c(=O)c3c2)CCC1F (stereo partly shown) [Example 106]
IC50 [1]: < 20 nM

Cn1cnnc1[C@]1(c2ccnc(-n3cnc4c(C(F)(F)F)cc(CN5CCC6(CCO6)C5)cc4c3=O)c2)C[C@H](C)C1 (stereo partly shown) [Example 120]
IC50: 500 to 1000 nM

C[C@H]1CCCN(Cc2cc(C(=O)Nc3cccc(C(c4nncn4C)C4CCC4)c3)cc(C(F)(F)F)c2)C1 (stereo partly shown) [Example 31]
IC50: 50 to 500 nM

C#Cc1cc(-n2cc3c(C(F)(F)F)cc(CN4CCC[C@H](C)C4)cc3n2)cc(C2(c3nncn3C)CC(C)C2)c1 (stereo partly shown) [Example 51]
IC50: 50 to 500 nM

CC1CC(c2cccc(-n3nc(C(F)(F)F)c4ccc(CN5CCC[C@H](C)C5)cc4c3=O)c2)(c2nncn2C)C1 (stereo partly shown) [Example 9]
IC50: 50 to 500 nM

[2H]C([2H])(c1cc(C(F)(F)F)c2ncn(-c3cccc([C@]4(c5nncn5C)C[C@@H](C)C4)c3)c(=O)c2c1)N1CCC[C@H](C)C1 [Example 104]
IC50 [1]: < 20 nM

Cn1cnnc1CC1(c2cccc(-n3cc4c(C(F)(F)F)cc(CN5CCC[C@H](C6CC6)C5)cc4n3)c2)COC1 [Example 64]
IC50 [1]: < 20 nM

C[C@H]1CCCN(Cc2cc(C(F)(F)F)c3cn(-c4cccc(C5(c6nncn6C)CC(=O)C5)c4)nc3c2)C1 [Example 68]
IC50: 50 to 500 nM

C[C@H]1CCCN(Cc2cc(C(=O)Nc3cccc([C@]4(c5nncn5C)C[C@H](C)C4)c3)c(F)c(C(F)(F)F)c2)C1 [Example 29]
IC50 [1]: < 20 nM

CC1CC(c2cccc(NC(=O)c3cc(CN4CCC[C@H](C)C4)cc(C(F)(F)F)c3)c2)(c2nncn2C)C1 (stereo partly shown) [Example 30]
IC50: 20 to 50 nM

C[C@H]1CCCN(Cc2cc3c(=O)n(-c4cc([C@]5(c6nncn6C)C[C@@H](C)C5)cc(OCF)n4)cnc3cn2)C1 [Example 99]
IC50: < 20 nM

[2H]C([2H])([2H])n1cnnc1C1(c2ccnc(-n3cnc4c(C(F)(F)F)cc(CN5CCC[C@H](C)C5)cc4c3=O)c2)CC(C)C1 (stereo partly shown) [Example 121]
IC50: < 20 nM

C[C@H]1CCCN(Cc2cc(C(F)(F)F)c3ncn(-c4cccc(C5(Cc6nncn6C)COC5)c4)c(=O)c3c2)C1 [Example 80, (S)-3-(3-(3-((4-methyl-4H-1,2,4-triazol-3-yl)methyl)oxetan-3-yl)phenyl)-6-((3-methylpiperidin-1-yl)methyl)-8-(trifluoromethyl)quinazolin-4(3H)-one]
IC50: 500 to 1000 nM

CC(c1ccc2ncn(-c3cc([C@]4(c5nncn5C)C[C@@H](C)C4)cc(OCF)n3)c(=O)c2c1)N1CCC[C@H](C)C1 (stereo partly shown) [Example 95]
IC50 [1]: < 20 nM

CC1CC(c2cc(Cl)nc(-n3cnc4c(C(F)(F)F)cc(CN5CCC[C@H](C)C5)cc4c3=O)c2)(c2nncn2C)C1 (stereo partly shown) [Example 41]
IC50: 20 to 50 nM

CC1CC(c2cccc(-c3nc4cc(CN5CCC[C@H](C)C5)cc(C(F)(F)F)c4[nH]3)c2)(c2nncn2C)C1 (stereo partly shown) [Example 17]
IC50: 50 to 500 nM

CC1=CCCN(Cc2cc(C(F)(F)F)c3cn(-c4cccc(C5(c6nncn6C)CC(C)C5)c4)nc3c2)C1 (stereo not shown) [Example 79]
IC50: 20 to 50 nM

CC1CC(c2cncc(-n3cc4c(C(F)(F)F)cc(CN5CCC[C@H](C)C5)cc4n3)c2)(c2nncn2C)C1 (stereo partly shown) [Example 91]
IC50: 20 to 50 nM

Cn1cnnc1[C@]1(c2cc(OCF)nc(-n3cnc4c(C(F)(F)F)cc(CN5CCC[C@H](F)C5)cc4c3=O)c2)C[C@H](C)C1 [Example 102]
IC50 [1]: < 20 nM

COCC1CC(c2cccc(-n3cc4c(C(F)(F)F)cc(CN5CCC[C@H](C)C5)cc4n3)c2)(c2nncn2C)C1 (stereo partly shown) [Example 33]
IC50: 20 to 50 nM

CC1CC(c2cc(OCF)nc(-n3ncc4c(C(F)(F)F)cc(CN5CCC[C@H](C)C5)cc4c3=O)c2)(c2nncn2C)C1 (stereo partly shown) [Example 38]
IC50 [1]: < 20 nM

Cn1cnnc1[C@]1(c2ccnc(-n3cnc4c(C(F)(F)F)cc(CN5CCC[C@H](CF)C5)cc4c3=O)c2)C[C@H](C)C1 [Example 105]
IC50 [1]: < 20 nM

CC1CC(c2cncc(-n3ncc4c(C(F)(F)F)cc(CN5CCC[C@H](C)C5)cc4c3=O)c2)(c2nncn2C)C1 (stereo partly shown) [Example 77]
IC50 [1]: < 20 nM

CC1CC(c2cccc(-n3cc(C(F)(F)F)c4ccc(CN5CCC[C@H](C)C5)cc4c3=O)c2)(c2nncn2C)C1 (stereo partly shown) [Example 12]
IC50 [1]: < 20 nM

CC1CC(c2cccc(-n3cnc4c(C(F)(F)F)c(CN5CCC[C@H](C)C5)[nH]c4c3=O)c2)(c2nncn2C)C1 (stereo partly shown) [Example 63]
IC50 [1]: < 20 nM

C#CCC1CC(c2cccc(-n3cc4c(C(F)(F)F)cc(CN5CCC[C@H](C)C5)cc4n3)c2)(c2nncn2C)C1 (stereo partly shown) [Example 66]
IC50: 20 to 50 nM

Cn1cnnc1[C@]1(c2cccc(-n3cc4c(C(F)(F)F)cc(CN5CCOC6(CCC6)C5)cc4n3)c2)C[C@H](C)C1 [Example 40]
IC50: 50 to 500 nM

C[C@H]1CCCN(Cc2cc(C(F)(F)F)c3ncn(-c4cccc(C5(c6nncn6C)CC(=O)C5)c4)c(=O)c3c2)C1 [Example 67]
IC50: 50 to 500 nM

CC1CC(c2cccc(-n3ncc4c(C(F)(F)F)cc(CN5CCO[C@H](C)C5)cc4c3=O)c2)(c2nncn2C)C1 (stereo partly shown) [Example 10]
IC50 [1]: > 1000 nM

C[C@H]1CCCN(Cc2cc(C(F)(F)F)c3ncn(-c4cc([C@]5(c6nncn6C)C[C@@H](C)C5)ccn4)c(=O)c3c2)C1 [Example 78]
IC50 [1]: < 20 nM

CNC(=O)c1cc(-n2cc3c(C(F)(F)F)cc(CN4CCC[C@H](C)C4)cc3n2)cc(C2(c3nncn3C)CC(C)C2)c1 (stereo partly shown) [Example 43]
IC50: 50 to 500 nM

C[C@H]1CCCN(Cc2cc(C(F)(F)F)c3sc(-c4cccc(C5(Cc6nncn6C)COC5)c4)nc3c2)C1 [Example 16]
IC50 [1]: < 20 nM

C[C@H]1CCCN(Cc2cc(C(F)(F)F)c3cnn(-c4cccc([C@@H](c5nncn5C)C5CCC5)c4)c(=O)c3c2)C1 [Example 18]
IC50 [1]: > 1000 nM

C=Cc1cc([C@]2(c3nncn3C)C[C@@H](C)C2)cc(-n2cnc3ccc(CN4CCC[C@H](C)C4)cc3c2=O)n1 [Example 94]
IC50 [1]: < 20 nM
